Laboratory results from patent publication US20230096203A1, “METHODS FOR DETECTING FOOD ALLERGIES” (THE REGENTS OF THE UNIVERSITY OF MICHIGAN, priority 2020, published 2023).

Tested on: CFTR-dependent Cl— transport
Test: Ussing chamber: forskolin-induced short-circuit current of jejunum segments pre-incubated ex vivo with ion channel blockers
Parameters: species or system BALB/c wild-type (WT) mice
Conditions: jejunum of OVA-treated mice; DIDS (100 μM) or CFTRInh172 (20 μM) in mucosal reservoir
Protocol: Oral Antigen-Induced Intestinal Anaphylaxis. 4-8-week-old mice were sensitized to ovalbumin (OVA) ([…] of OVA/1 mg of alum in sterile saline by intraperitoneal (i.p.) injection) and received repeated oral gavage (o.g.) challenge with OVA (250 μl of OVA (50 mg) in saline or 250 μl of saline (vehicle)) as previously described (Ahrens et al., American Journal of Pathology 180, 1535-1546, doi:10.101/j.ajpath.2011.12.036 (2012)). Prior to each o.g. challenge, mice were deprived of food for 4-5 hours. Rectal temperatures were measured prior to challenge and then every 15 minutes for 60 minutes. […] Evidence of secretory diarrhea was assessed by determination of short-circuit current (Isc) of small intestine (Si) segments ex vivo in a Ussing chamber system up to 60 minutes following o.g. challenge. […]
Ussing chambers. […] The transepithelial potential difference (PD) was detected with two paired electrodes that contained 4% agar in 3 M KCl. […] To establish equilibrium, PD was continuously monitored under open-circuit conditions for 15 min. […] For ion conductance experiments, changes in Isc were determined for the cumulative addition of forskolin and acetylcholine to the serosal reservoir. After the peak response to the final concentration of each agonist was recorded, the Krebs buffer on each side of the chamber was replaced, and the tissue was allowed to equilibrate for 30 minutes. […]

Compound	Forskolin-induced ΔIsc
O=C(O)c1ccc(/C=C2\SC(=S)N(c3cccc(C(F)(F)F)c3)C2=O)cc1 [CFTR^inh172]	abrogated
O=S(=O)(O)c1cc(N=C=S)ccc1C=Cc1ccc(N=C=S)cc1S(=O)(=O)O [DIDS, 4,4′-Diisothiocyanatostilbene-2,2′-disulfonate]	not
